Data: patent publication US20260137700A1, “PHARMACEUTICAL COMBINATION OF PRMT5 INHIBITOR AND DNA DAMAGE-INDUCING SUBSTANCE” (SK Biopharmaceuticals Co., Ltd., priority 2022, published 2026)

Legend:
[1] = system: cancer cell lines of Table 2 (A549, A549/CR, A549/PR, CAPAN-1, NCI-H1048, MDA-MB-231, Mia PaCa-2, SNU-324, OVCAR3, PA-1, PANC-1, U-87 MG); assay: Cell viability assay (WST) with combination synergy analysis (Bliss score); format: cell-based, human; settings: combination with various DNA damage inducers, FIGS. 1 to 25; culture ended on days 7 to 9
Procedure: Most cell lines were obtained from the American Type Culture Collection (ATCC) or the Korean Cell Line Bank (KCLB). Combination experiments in cisplatin-resistant and paclitaxel-resistant cell lines were performed at the Asan Preclinical Evaluation center for cancer therapeutiX of Asan Medical Center, Seoul. All cell lines were maintained in appropriate growth medium for the cell line in 100-pi dishes oRT75 (75 cm2) flasks, cultured at 37° C. with 5% CO2, and passaged every 3-4 days. Growth medium conditions and cell line information are listed in Table 2, and the cells were counted using Countess (Invitrogen) to obtain the number of viable cells. Mutation and HRD status by cell type are described in Table 3.
The next day, compound-87 was diluted 1/2 to 1/4 to a concentration of 20 μM to 0.002 μM and treated at a set concentration range, and the co-administered drug was diluted 1/2 to 1/3 to a concentration of 100 μM to 0.00046 μM and treated at a 1:1 (v/v) ratio. Finally, the treatment ratio of compound-87 and the co-administered substance was between 1:20000 and 1:0.00015, and in clinical practice, compound-87: drug to be co-administered can be treated at a ratio of 1:10000 to 1:0.0001.
PANC-1 (wild-type BRCA1/BRCA2) pancreatic cancer cells were treated with compound-87 at concentrations of […], and E7016, a PARP inhibitor as a co-administered agent at concentration of 0.078, 0.156, 0.313, 0.625, 1.25, 2.5, 5, or 10 μM (FIG. 25). Cell culture was terminated on days 7 to 9, and cell viability and synergistic effect were evaluated for each combination of concentrations.
Cell viability was measured by a colorimetric assay using water-soluble tetrazolium salt (WST). […]
Results are normalized to DMSO-treated groups as 100% and expressed as the percent of viable cells upon compound addition. […]
The synergy of each compound was analyzed using Combenefit software (Cambridge Research UK, Cambridge Institute, University of Cambridge, United Kingdom), and synergy was evaluated by using Blliss (Ref: Di Veroli et al., 2016, Bioinformatics 32(18):2866-2868). […]

[2] = system: human small cell lung cancer cells NCI-H1048; assay: Subcutaneous xenograft mouse model of NCI-H1048 small cell lung cancer cells, tumor growth inhibition; format: in vivo; settings: day 23
Procedure: For in vivo efficacy study in a subcutaneous xenograft mouse model of human small cell lung cancer cells NCI-H1048, co-administration of compound-87 as a PRMT5 inhibitor according to an example of the present invention and cisplatin as an alkylating agent of a chemotherapeutic agent, was performed. To produce a small cell lung cancer xenograft model, 10 million of NCI-H1048 cells were injected subcutaneously into the right flank of female nude mice, and tumor growth was monitored.
To evaluate the anticancer effect, when the tumor volume reached approximately 162 mm^3 on average, the mice were divided into four groups. The all group included a solvent-treated group (Vehicle 1 (Compound-87)+Vehicle 2 (cisplatin) group), a Compound-87 monotherapy group (50 mg/kg), a cisplatin monotherapy group (4 mg/kg), and combination therapy group of Compound-87 and cisplatin. The Compound-87 treatment group was administered orally on a 3-day administration/4-day non-administration schedule, and cisplatin was administered intraperitoneally once a week for 22 days (Day 1-Day 23). All mice were euthanized on Day 22 (Day 23).

[3] = system: human pancreatic cancer cells CAPAN-1; assay: Subcutaneous xenograft mouse model of CAPAN-1 pancreatic cancer cells, tumor volume; format: in vivo; settings: Day 31, solvent group 1,017 mm^3
Procedure: For in vivo efficacy studies in a subcutaneous xenograft mouse model of human pancreatic cancer cells CAPAN-1, co-administration of compound-87 as a PRMT5 inhibitor according to one example of the present invention and Gemcitabine as an anti-metabolite of a chemotherapeutic agent, was performed.
To produce a pancreatic cancer xenograft model, 5 million CAPAN-1 cells were injected subcutaneously into the right flank of female nude mice, and tumor growth was monitored.
To evaluate the anticancer effect, when the tumor volume reached approximately 185 mm^3 on average, the mice were divided into six groups. The all group included the solvent-treated group (vehicle group), the compound-87 monotherapy group (25 mg/kg or 50 mg/kg), the gemcitabine monotherapy group (50 mg/kg), combination therapy group of the compound-87 (25 mg/kg or 50 mg/kg), and the gemcitabine. The vehicle A group or the compound-87 treatment group was administered orally on a 3-day administration/4-day non-administration schedule, and the vehicle B group or the gemcitabine treatment group was administered intraperitoneally twice a week.

DNA damage repair genes = assay: Gene expression analysis in patient-derived xenograft mice (CTG-2534); format: in vivo, mouse; settings: compound-87 oral, 3-day on/4-day off; tumors taken when solvent group reached 955 mm^3
Excerpt: In order to analyze changes in gene expression by PRMT5 inhibitor treatment according to one example of the present invention, patient-derived cells CTG-2534 were xenografted into mice subcutaneously, and then the mice were divided into groups, when the tumor volume reached 80 to 300 mm^3. The solvent-treated group (vehicle group) or the compound-87 treatment group was orally administered on a 3-day on/4-day off schedule. When the tumor volume of the solvent-treated group reached 955 mm^3, the tumors were separated and performed for gene expression analysis.
FIG. 30 is a heat map showing the change in expression of DNA damage repair genes using Z-score values for Log2FPKM, after compound-87 treatment were performed in patient-derived lung cancer […] cell xenograft mice. In FIG. 30, the solvent-treated group is shown in red (positive value), and the compound-87-treated group is shown in blue (negative value).

`CN1CCC(Oc2ccc3c(c2)OCCN(C[C@H](O)CN2CCc4ccccc4C2)C3=O)CC1` [Compound-87, 4-[(2R)-3-(3,4-dihydro-1H-isoquinolin-2-yl)-2-hydroxy-propyl]-8-[(1-methyl-4-piperidyl)oxy]-2,3-dihydro-1,4-benzoxazepin-5-one] was tested, and the “inhibition of cell viability, combination treatment compared to single agent” value [1] was “enhanced inhibition effects of cell viability”, the partial response ([2]; compound-87 50 mg/kg oral combined with cisplatin 4 mg/kg i.p., partial response in all mice) was 60.6% and the “tumor growth inhibition rate” value ([2]; compound-87 alone, 50 mg/kg oral, 3-day administration/4-day non-administration) was 62.0%. For the same compound, the tumor volume ([3]; Compound-87 25 mg/kg oral (3 days on/4 off) in combination with gemcitabine 50 mg/kg i.p. twice a week) was 379 mm^3, the tumor volume ([3]; Compound-87 50 mg/kg oral (3 days on/4 off) in combination with gemcitabine 50 mg/kg i.p. twice a week) was 235 mm^3 and the “change in expression of DNA damage repair genes (Z-score of Log2FPKM, heat map FIG. 30)” value (DNA damage repair genes) was “reduced expression of DNA damage repair genes”.
